Target: TNF-α (Homo sapiens, UniProt P01375)
Assay: TNF-α Induced HEK Blue Cellular Assay
Assay type: cell-based
Settings: HEK Blue TNFα reporter cells, TNF-α 100 pg/ml, 24 hrs at 37° C., secreted alkaline phosphatase (QUANTI-Blue, 620 nm)
In short: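 Read-out is SEAP via QUANTI-Blue absorbance at 620 nm after a 24 h, 37 °C incubation of reporter HEK Blue cells with 100 pg/ml TNF-α plus compound at final […]–0.5 nM. Percent inhibition normalised to DMSO ± stimulation; 4-parameter logistic fit gives IC50.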

TNF-α, sequence (P01375 77-233 limits assumed): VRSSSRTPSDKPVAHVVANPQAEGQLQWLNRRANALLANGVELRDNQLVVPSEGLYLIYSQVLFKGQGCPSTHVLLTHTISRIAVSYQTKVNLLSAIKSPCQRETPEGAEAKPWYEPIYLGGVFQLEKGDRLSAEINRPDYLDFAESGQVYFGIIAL

| SMILES | IC50 [nM] |
| --- | --- |
| Cc1nc2cc(F)c(-c3ccc(P(C)(C)=O)nc3)nc2c(N[C@@H](c2cccc(F)c2F)C(F)F)c1Cl (single isomer, unassigned) [Example 145] | 10000 to 30000 |
| Cc1nc2cc(F)c(-c3ccc(P(C)(C)=O)nc3)nc2c(N[C@H](C)c2ccc(F)cc2F)c1Cl [Example 88, 3-chloro-N-[(1R)-1-(2,4-difluorophenyl)ethyl]-6-[6-(dimethylphosphoryl)pyridin-3-yl]-7-fluoro-2-methyl-1,5-naphthyridin-4-amine] | 10000 to 30000 |
| Cc1nc2ccc(-c3cnc(P(C)(C)=O)nc3)cc2c(N[C@H](C)c2cc(C#N)ccc2F)c1Cl [Example 6, 3-[(1R)-1-({3-chloro-6-[2-(dimethylphosphoryl)pyrimidin-5-yl]-2-methylquinolin-4-yl}amino)ethyl]-4-fluorobenzonitrile] | ≤ 1000 |
| COc1cc([C@@H](C)Nc2c(Cl)c(C)nc3cc(F)c(-c4ccc(P(C)(C)=O)nc4)nc23)ccn1 [Example 81, 3-chloro-6-[6-(dimethylphosphoryl)pyridin-3-yl]-7-fluoro-N-[(1R)-1-(2-methoxypyridin-4-yl)ethyl]-2-methyl-1,5-naphthyridin-4-amine] | 10000 to 30000 |
| Cc1nc2cc(F)c(-c3ccc(P(C)(C)=O)nc3)nc2c(N[C@@H](c2cc(F)cc(F)c2)C2CC2)c1Cl [Example 138, 3-chloro-N—[(R)-cyclopropyl(3,5-difluorophenyl)methyl]-6-[6-(dimethylphosphoryl)pyridin-3-yl]-7-fluoro-2-methyl-1,5-naphthyridin-4-amine] | ≤ 1000 |
| Cc1nc2cc(F)c(-c3ccc(P4(=O)CCOCC4)nc3)nc2c(N[C@H](C)c2cccc(F)c2F)c1Cl [Example 143, 4-[5-(7-chloro-8-{[(1R)-1-(2,3-difluorophenyl)ethyl]amino}-3-fluoro-6-methyl-1,5-naphthyridin-2-yl)pyridin-2-yl]-1,4lambda5-oxaphosphinan-4-one] | 10000 to 30000 |
| Cc1nc2cc(F)c(-c3cnc(P(C)(C)=O)nc3)nc2c(NC(c2ccccc2F)C(F)F)c1Cl (centres unmarked) [Example 29, 3-chloro-N-[2,2-difluoro-1-(2-fluorophenyl)ethyl]-6-[2-(dimethylphosphoryl)pyrimidin-5-yl]-7-fluoro-2-methyl-1,5-naphthyridin-4-amine] | ≤ 1000 |
| CC[C@H](Nc1c(Cl)c(C)nc2cc(F)c(-c3cnc(P(C)(C)=O)nc3)nc12)c1ccccc1F [Example 17, 3-chloro-6-[2-(dimethylphosphoryl)pyrimidin-5-yl]-7-fluoro-N-[(1S)-1-(2-fluorophenyl)propyl]-2-methyl-1,5-naphthyridin-4-amine] | ≤ 1000 |
| CC[C@@H](Nc1c(Cl)c(C)nc2cc(F)c(-c3cnc(P(C)(C)=O)nc3)nc12)c1cccc(C#N)c1 [Example 47, 3-[(1R)-1-({3-chloro-6-[2-(dimethylphosphoryl)pyrimidin-5-yl]-7-fluoro-2-methyl-1,5-naphthyridin-4-yl}amino)propyl]benzonitrile] | ≤ 1000 |
| CC[C@@H](Nc1c(Cl)c(C)nc2cc(F)c(-c3ccc(P(C)(C)=O)nc3)c(F)c12)c1ncccc1F [Example 74, (R)-(5-(3-chloro-5,7-difluoro-4-((1-(3-fluoropyridin-2-yl)propyl)amino)-2-methylquinolin-6-yl)pyridin-2-yl)dimethylphosphine oxide] | ≤ 1000 |
| Cc1nc2cc(F)c(-c3cnc(P(C)(C)=O)nc3)nc2c(N[C@H](C)c2ccccc2C(F)(F)F)c1Cl [Example 55, 3-chloro-6-[2-(dimethylphosphoryl)pyrimidin-5-yl]-7-fluoro-2-methyl-N-[(1R)-1-[2-(trifluoromethyl)phenyl]ethyl]-1,5-naphthyridin-4-amine] | 10000 to 30000 |
| Cc1nc2cc(F)c(-c3ccc(P(C)(C)=O)nc3)nc2c(N[C@H](C)c2ccccc2Cl)c1Cl [Example 87, 3-chloro-N-[(1R)-1-(2-chlorophenyl)ethyl]-6-[6-(dimethylphosphoryl)pyridin-3-yl]-7-fluoro-2-methyl-1,5-naphthyridin-4-amine] | 1000 to 10000 |
| Cc1nc2cc(F)c(-c3ccc(P4(=O)CCOCC4)nc3)nc2c(N[C@H](C)c2cc(C#N)ccc2F)c1Cl [Example 141, 3-[(1R)-1-({3-chloro-7-fluoro-2-methyl-6-[6-(4-oxo-1,4lambda5-oxaphosphinan-4-yl)pyridin-3-yl]-1,5-naphthyridin-4-yl}amino)ethyl]-4-fluorobenzonitrile] | 1000 to 10000 |
| Cc1nc2cc(F)c(-c3ccc(P(C)(C)=O)nc3)nc2c(N[C@@H](C)c2c(F)cccc2F)c1Cl [Example 54, 3-chloro-N-[(1S)-1-(2,6-difluorophenyl)ethyl]-6-[6-(dimethylphosphoryl)pyridin-3-yl]-7-fluoro-2-methyl-1,5-naphthyridin-4-amine] | ≤ 1000 |

Second part, the molecule after the results:

| IC50 [nM] | SMILES |
| --- | --- |
| ≤ 100 | Cc1nc2cc(F)c(-c3ccc(P(C)(C)=O)nc3)nc2c(N[C@H](C)c2cccc(Cl)c2F)c1Cl [Example 78, 3-chloro-N-[(1R)-1-(3-chloro-2-fluorophenyl)ethyl]-6-[6-(dimethylphosphoryl)pyridin-3-yl]-7-fluoro-2-methyl-1,5-naphthyridin-4-amine] |
| ≤ 100 | CC[C@H](Nc1c(Cl)c(C)nc2cc(F)c(-c3ccc(P(C)(C)=O)nc3)nc12)c1cc(C#N)ccc1F [Example 44, 3-[(1S)-1-({3-chloro-6-[6-(dimethylphosphoryl)pyridin-3-yl]-7-fluoro-2-methyl-1,5-naphthyridin-4-yl}amino)propyl]-4-fluorobenzonitrile] |
| ≤ 100 | Cc1nc2cc(F)c(-c3cnc(P(C)(C)=O)c(F)c3)nc2c(N[C@H](C)c2cc(C#N)ccc2F)c1Cl [Example 120, 3-[(1R)-1-({3-chloro-6-[6-(dimethylphosphoryl)-5-fluoropyridin-3-yl]-7-fluoro-2-methyl-1,5-naphthyridin-4-yl}amino)ethyl]-4-fluorobenzonitrile] |
| ≤ 1000 | Cc1nc2cc(F)c(-c3ccc(P(C)(C)=O)nc3)c(F)c2c(N[C@H](C)c2ccccc2F)c1Cl [Example 72, 3-chloro-6-[6-(dimethylphosphoryl)pyridin-3-yl]-5,7-difluoro-N-[(1R)-1-(2-fluorophenyl)ethyl]-2-methylquinolin-4-amine] |
| ≤ 100 | Cc1nc2cc(F)c(-c3ccc(P(C)(C)=O)nc3)nc2c(N[C@H](C)c2cc(C#N)cc(F)c2F)c1Cl [Example 106, 3-[(1R)-1-({3-chloro-6-[6-(dimethylphosphoryl)pyridin-3-yl]-7-fluoro-2-methyl-1,5-naphthyridin-4-yl}amino)ethyl]-4,5-difluorobenzonitrile] |
| ≤ 100 | CC[C@H](Nc1c(Cl)c(C)nc2cc(F)c(-c3ccc(P(C)(C)=O)nc3)nc12)c1ncccc1F [Example 68, (S)-(5-(7-chloro-3-fluoro-8-((1-(3-fluoropyridin-2-yl)propyl)amino)-6-methyl-1,5-naphthyridin-2-yl)pyridin-2-yl)dimethylphosphine oxide] |
| ≤ 100 | Cc1nc2cc(F)c(-c3ccc(P(C)(C)=O)nc3)cc2c(N[C@H](C)c2ccccc2F)c1Cl [Example 19, 3-chloro-6-[6-(dimethylphosphoryl)pyridin-3-yl]-7-fluoro-N-[(1R)-1-(2-fluorophenyl)ethyl]-2-methylquinolin-4-amine] |
| ≤ 100 | CC[C@H](Nc1c(Cl)c(C)nc2cc(F)c(-c3cnc(P(C)(C)=O)nc3)nc12)c1cc(C#N)ccc1F [Example 30, 3-[(1S)-1-({3-chloro-6-[2-(dimethylphosphoryl)pyrimidin-5-yl]-7-fluoro-2-methyl-1,5-naphthyridin-4-yl}amino)propyl]-4-fluorobenzonitrile] |
| ≤ 100 | CC[C@@H](Nc1c(Cl)c(C)nc2cc(F)c(-c3ccc(P(C)(C)=O)nc3)nc12)c1ccccc1 [Example 79, 3-chloro-6-[6-(dimethylphosphoryl)pyridin-3-yl]-7-fluoro-2-methyl-N-[(1R)-1-phenylpropyl]-1,5-naphthyridin-4-amine] |
| ≤ 100 | CC[C@@H](Nc1c(Cl)c(C)nc2cc(F)c(-c3ccc(P(C)(C)=O)nc3)nc12)c1cccc(C#N)c1 [Example 48, 3-[(1R)-1-({3-chloro-6-[6-(dimethylphosphoryl)pyridin-3-yl]-7-fluoro-2-methyl-1,5-naphthyridin-4-yl}amino)propyl]benzonitrile] |
| ≤ 100 | CC[C@@H](Nc1c(Cl)c(C)nc2cc(F)c(-c3ccc(P(C)(C)=O)nc3)nc12)c1cccc(F)c1F [Example 95, (R)-(5-(7-chloro-8-((1-(2,3-difluorophenyl)propyl)amino)-3-fluoro-6-methyl-1,5-naphthyridin-2-yl)pyridin-2-yl)dimethylphosphine oxide] |
| ≤ 100 | Cc1nc2cc(F)c(-c3ccc(P(C)(C)=O)nc3)nc2c(N[C@H](C)c2cccc(F)c2F)c1Cl [Example 50, 3-chloro-N-[(1R)-1-(2,3-difluorophenyl)ethyl]-6-[6-(dimethylphosphoryl)pyridin-3-yl]-7-fluoro-2-methyl-1,5-naphthyridin-4-amine] |
| ≤ 100 | CC[P@](C)(=O)c1ccc(-c2nc3c(N[C@H](C)c4cc(C#N)ccc4F)c(Cl)c(C)nc3cc2F)cn1 (single isomer, unassigned) [Example 58] |
| ≤ 100 | Cc1nc2cc(F)c(-c3ccc(P(C)(C)=O)nc3)nc2c(N[C@H](C)c2cc(C(N)=O)ccc2F)c1Cl [Example 13, 3-[(1R)-1-({3-chloro-6-[6-(dimethylphosphoryl)pyridin-3-yl]-7-fluoro-2-methyl-1,5-naphthyridin-4-yl}amino)ethyl]-4-fluorobenzamide] |
| ≤ 100 | CC[C@H](Nc1c(Cl)c(C)nc2cc(F)c(-c3ccc(P(C)(C)=O)nc3)nc12)c1cccc(F)c1F [Example 96, (S)-(5-(7-chloro-8-((1-(2,3-difluorophenyl)propyl)amino)-3-fluoro-6-methyl-1,5-naphthyridin-2-yl)pyridin-2-yl)dimethylphosphine oxide] |

Reference: patent US12338262B2 (Forward Therapeutics, Inc., priority 2022, dated 2025)
